# Laboratory results reported in the Deep4Chem optical property database.
# Several values for one entry are separate records, joined by “and”; a condition that tells them apart may be missing. Equal entries are not always repeated.
# Assay: solvent given as SMILES
structure (smiles),measurement,setting,value
c1ccc(-c2nc3c(ccc4[nH]ccc43)o2)cc1,emission maximum,in C1CCCCC1,372 nm
same,emission maximum,in C1COCCO1,409 nm
same,emission maximum,in CC#N,427 nm
same,emission maximum,in CO,437 nm
same,emission maximum,in Cc1ccccc1,390 nm
same,emission maximum,in O,459 nm
c1ccc2c(-c3cc4c(ccc5sc(-c6cccc7ccccc67)cc54)s3)cccc2c1,emission maximum,in ClCCl,423 nm
CCCCCCCCCCCCCCCCn1c(-c2cc(-c3nc4ccccc4n3CCCCCCCCCCCCCCCC)cc(-c3nc4ccccc4n3CCCCCCCCCCCCCCCC)c2)nc2ccccc21,emission maximum,in C1CCOC1,363 nm
CN(C)c1ccc(-c2ccc(/C=C/c3ccncn3)cc2)cc1,emission maximum,in ClCCl,570 nm
Cc1nc2c(ccc3ccc(N(C)C)cc32)oc1=O,emission maximum,in c1ccccc1,564 nm
COc1ccc(-c2ccc3c(c2)[Si](C)(C)c2cc(-c4ccc(OC)cc4)ccc2C=C3)cc1,emission maximum,in ClCCl,424 nm
CCCCOc1ccc2cc(-c3ccc(C)cc3)c(=O)oc2c1,emission maximum,in C1CCOC1,423 nm
same,emission maximum,in CCCCCC,416 nm
same,emission maximum,in CCO,429 nm
same,emission maximum,in CS(C)=O,431 nm
CCCCCCCCN1C(=O)c2ccc3c4c(-c5ccc6c7ccccc7n(-c7ccccc7)c6c5)cc5c6c(cc(-c7ccc8c9ccccc9n(-c9ccccc9)c8c7)c(c7ccc(c2c37)C1=O)c64)C(=O)N(CCCCCCCC)C5=O,emission maximum,in ClC(Cl)Cl,644 nm
CC(C)(C)c1ccc2c(c1)c1cc(C(C)(C)C)ccc1n2-c1ccc(S(=O)(=O)c2ccc(-n3c4ccc(C(C)(C)C)cc4c4cc(C(C)(C)C)ccc43)cn2)nc1,emission maximum,in Cc1ccccc1,444.37 nm
same,emission maximum,in O=P(c1ccccc1)(c1ccccc1)c1ccc2sc3cccc(P(=O)(c4ccccc4)c4ccccc4)c3c2c1,444 nm
c1ccc(N(c2ccccc2)c2ccc(-c3ccc(-c4nc(-c5ccccn5)n(-c5ccccc5)n4)cc3)cc2)cc1,emission maximum,in ClCCl,435 nm
CN(C)c1ccc(C#Cc2cc(C#Cc3ccc(C(F)(F)F)cc3)c3ccc4c(C#Cc5ccc(N(C)C)cc5)cc(C#Cc5ccc(C(F)(F)F)cc5)c5ccc2c3c45)cc1,emission maximum,in ClCCl,605 nm
COc1ccc(N(c2ccc(OC)cc2)c2ccc(-c3ccc(-c4ccc(-c5cccs5)c5nsnc45)s3)cc2)cc1,emission maximum,in ClC(Cl)Cl,705 nm
c1ccc(N(c2ccccc2)c2ccccc2)cc1,emission maximum,in CCO,353 nm
Nc1ccc(/C=C/c2ccc3ccccc3c2)cc1,emission maximum,in CC#N,450 nm
same,emission maximum,in CCCCCC,392 nm
CCOC(=O)c1cc(C(=O)OCC)c2cc(N(C)C)ccc2n1,emission maximum,in CCO,564 nm
c1ccc(-c2nc(-c3ccc(-c4nc(-c5ccccc5)c(-c5ccccc5)[nH]4)s3)[nH]c2-c2ccccc2)cc1,emission maximum,in C1CCOC1,457 nm
same,emission maximum,in CC#N,458 nm
same,emission maximum,in CC(=O)O,503 nm and 502.99 nm
same,emission maximum,in CC(C)=O,460 nm and 458 nm
same,emission maximum,in CCOC(C)=O,457 nm
same,emission maximum,in CCOCC,454 nm and 454.01 nm
same,emission maximum,in CO,457 nm
same,emission maximum,in ClC(Cl)Cl,485 nm and 484.99 nm
CC1=CC(C)=[N+]2C1=Cc1c3ccccc3c(-c3[nH]c(C)cc3C)n1[B-]2(F)F,emission maximum,in ClCCl,631 nm
CCOC(=O)c1c(-c2c(Cl)c3cc(C)ccc3oc2=O)nn(-c2cccc(C)c2)c1C(=O)OCC,emission maximum,in ClCCl,418 nm
CC1(C)C(/C=C/C2=C(Cl)C(=C/C=C3/N(Cc4ccc([N+](=O)[O-])cc4)c4ccccc4C3(C)C)/CCC2)=[N+](Cc2ccc([N+](=O)[O-])cc2)c2ccccc21,emission maximum,in CO,807 nm
c1ccc2c3c(ccc2c1)-c1cccc2c1c-3cc1ccccc12,emission maximum,in CCCCCCC,482 nm
Cc1sc(-c2ccc(-c3nc(-c4ccccc4)c(-c4ccccc4)[nH]3)cc2)c(C)c1C1=C(c2c(C)n(C)c3ccccc23)C(F)(F)C(F)(F)C1(F)F,emission maximum,in C1CCOC1,392 nm
N#Cc1ccc(-c2ccc(C3=CCCCC3)s2)s1,emission maximum,in C1CCOC1,441 nm
same,emission maximum,in CC#N,448 nm
same,emission maximum,in CCCCCC,427 nm
same,emission maximum,in CCO,436 nm
same,emission maximum,in OCCOCCO,449 nm
same,emission maximum,in c1ccncc1,448 nm
C[Si](C)(c1cccc2cc3ccccc3cc12)[Si](C)(C)c1cccc2cc3ccccc3cc12,emission maximum,in C1CCCCC1,412 nm
same,emission maximum,in CC#N,412 nm
Cc1c2oc3c(C)c(N)cc(C(=O)NC4OC(=O)C(C(C)C)N(C)C(=O)CN(C)C(=O)C5CCCN5C(=O)C(C(C)C)NC4=O)c3nc-2c(C(=O)NC2OC(=O)C(C(C)C)N(C)C(=O)CN(C)C(=O)C3CCCN3C(=O)C(C(C)C)NC2=O)c(N)c1=O (stereo not drawn),emission maximum,in C1CCOC1,608.36 nm
same,emission maximum,in CC#N,634.41 nm
same,emission maximum,in CC(=O)O,638.86 nm
same,emission maximum,in CC(C)=O,609.72 nm
same,emission maximum,in CCCCO,669.51 nm
same,emission maximum,in CCCCOC(C)=O,624.05 nm
same,emission maximum,in CCCO,658.62 nm
same,emission maximum,in CCN(CC)CC,597.77 nm
same,emission maximum,in CCO,669 nm
same,emission maximum,in CCOC(C)=O,598.75 nm
same,emission maximum,in CN(C)C=O,640.78 nm
same,emission maximum,in CO,673.84 nm
same,emission maximum,in CS(C)=O,637.01 nm
same,emission maximum,in Cc1ccccc1,613.07 nm
same,emission maximum,in ClC(Cl)Cl,620.11 nm
same,emission maximum,in ClCCCl,609.65 nm
same,emission maximum,in O,674.17 nm
same,emission maximum,in O=[N+]([O-])c1ccccc1,623.24 nm
same,emission maximum,in c1ccccc1,621.25 nm
same,emission maximum,in c1ccncc1,648.07 nm
Cc1cc(C)c(B(c2ccc(N3c4ccccc4C(C)(C)c4ccccc43)cc2)c2c(C)cc(C)cc2C)c(C)c1,emission maximum,in C1CCCCC1,442 nm
same,emission maximum,in C1CCOC1,530 nm
same,emission maximum,in CN(C)C=O,578.72 nm
same,emission maximum,in Cc1ccccc1,484 nm
same,emission maximum,in ClCCl,540.77 nm
CCn1c2c(-c3ccc(-c4cccs4)s3)cc(C(C)(C)C)cc2c2cc(C(C)(C)C)cc(-c3ccc(-c4cccs4)s3)c21,emission maximum,in ClCCl,440 nm
CN(C)CCCN1c2ccccc2Sc2ccc(C(F)(F)F)cc21,emission maximum,in CC#N,470 nm
same,emission maximum,in CO,463 nm
same,emission maximum,in O,475 nm
Cc1ccc(N(C)C)cc1C1=C2C=CC(=[N+](C)C)C=C2[Si](C)(C)c2cc(N(C)C)ccc21,emission maximum,in O,662 nm
CCN(CC)c1ccc2c(-c3ccccc3C(=O)O)c3c([o+]c2c1)/C(=C/Nc1ccccc1)CCC3,emission maximum,in CCO,641 nm
same,emission maximum,in ClC(Cl)Cl,644 nm
same,emission maximum,in ClCCl,644 nm
C/C=C/c1cccc(OC)c1,emission maximum,in CC#N,327 nm
same,emission maximum,in CCCCCC,325 nm
c1ccc2c3c(ccc2c1)-c1cccc2cc4ccccc4c-3c12,emission maximum,in CCCCCCC,610 nm
Nc1cccc2c1-c1ccccc1C2=O,emission maximum,in C1CCCCC1,513 nm
same,emission maximum,in CC#N,604 nm
same,emission maximum,in CCO,667 nm
same,emission maximum,in c1ccccc1,544 nm
CC1(C)C2=C(c3ccc(N(c4ccccc4)c4ccccc4)cc31)P(=O)(c1ccccc1)c1ccccc12 (stereo not drawn),emission maximum,in CC#N,580 nm
same,emission maximum,in CO,598 nm
same,emission maximum,in Cc1ccccc1,511 nm
CCCCCCn1c(=O)c2c3[nH]c4ccccc4oc3c3c(=O)n(CCCCCC)c(=O)c3c2c1=O,emission maximum,in ClCCl,560 nm
Cc1cc(O)c(C(=O)/C=C/c2ccc(O)c(O)c2)c(=O)o1,emission maximum,in CC#N,518 nm
same,emission maximum,in ClCCl,493 nm
CC1(C)c2ccccc2N(c2ccc(-c3nc4c(C#N)ccc(C#N)c4nc3-c3ccc(N4c5ccccc5C(C)(C)c5ccccc54)cc3)cc2)c2ccccc21,emission maximum,in Cc1ccccc1,663 nm
c1cc2c3c(c1)ccc1[n+]3[B-]3(Oc4cccc5ccc6[n+](c45)[B-](O2)(O3)n2c-6cc3c4ccccc4c4ccccc4c32)n2c-1cc1c3ccccc3c3ccccc3c12,emission maximum,in ClCCl,568 nm
CCC1(CC)c2cc(/C=C/c3ccc(N(c4ccccc4)c4ccccc4)cc3)ccc2-c2ccc(/C=C/c3ccc(N(c4ccccc4)c4ccccc4)cc3)cc21,emission maximum,in Cc1ccccc1,451 nm
c1ccc(-n2c(-c3cccc4ccccc34)nc3c4ccccc4c4ccccc4c32)cc1,emission maximum,in C1CCOC1,413.91 nm
same,emission maximum,in CCCCCC,384 nm
same,emission maximum,in CS(C)=O,423 nm
same,emission maximum,in Cc1ccccc1,410 nm
same,emission maximum,in ClCCl,415.6 nm
O=c1[nH]c2ccccc2[nH]1,emission maximum,in C1CCOC1,315 nm
same,emission maximum,in CC#N,313.01 nm
same,emission maximum,in CC(C)=O,307 nm
same,emission maximum,in CCCCCCC,297 nm
same,emission maximum,in CCCCCl,302 nm
same,emission maximum,in CCCCO,311 nm
same,emission maximum,in CCCO,310 nm
same,emission maximum,in CCCOCCC,310 nm
same,emission maximum,in CCO,310 nm
FC(F)(F)c1ccc(-c2pc3ccccc3s2)cc1 (stereo not drawn),emission maximum,in CC#N,430 nm
CCCCCCCCCCOc1ccc2cc(C3=C4C(=O)N(CC(OCC)OCC)C(c5cc6ccc(OCCCCCCCCCC)cc6o5)=C4C(=O)N3CC(OCC)OCC)oc2c1,emission maximum,in ClC(Cl)Cl,613 nm
COc1ccc(C2=CC(c3ccc(OC)cc3)=[O+][B-](C(C)=O)(C(C)=O)O2)cc1,emission maximum,in CC#N,435 nm
same,emission maximum,in ClC(Cl)(Cl)Cl,420 nm
CCOC(=O)c1c(-c2cc3cc4c(cc3oc2=O)OC(C)(C)CC4)nn(-c2cccc(C)c2)c1C(=O)OCC,emission maximum,in ClCCl,428 nm
C[Si]1(C)C2=C(c3ccc(N(c4ccccc4)c4ccccc4)cc31)P(=O)(c1ccccc1)c1ccccc12 (stereo not drawn),emission maximum,in CC#N,611 nm
same,emission maximum,in CO,624 nm
same,emission maximum,in Cc1ccccc1,544 nm
Cc1ccccc1N(c1ccccc1C)c1ccc2ccc3c(N(c4ccccc4C)c4ccccc4C)ccc4ccc1c2c43,emission maximum,in Cc1ccccc1,452 nm
O=c1c2ccccc2n(-c2ccc(-c3ccc(-n4c5ccccc5c(=O)c5ccccc54)cc3)cc2)c2ccccc12,emission maximum,in ClCCl,405 nm
O=S(=O)(c1ccc(N2c3ccccc3N(c3ccccc3)c3ccccc32)cc1)c1ccc(N2c3ccccc3N(c3ccccc3)c3ccccc32)cc1,emission maximum,in Cc1ccccc1,577 nm
same,emission maximum,in c1cc(-n2c3ccccc3c3ccccc32)cc(-n2c3ccccc3c3ccccc32)c1,580 nm
O=S(=O)(c1ccc(N(c2ccccc2)c2ccccc2)cc1)c1ccc(S(=O)(=O)c2ccc(N(c3ccccc3)c3ccccc3)cc2)cc1,emission maximum,in Cc1ccccc1,451 nm
CCCCc1ccc2ccc3c(CCCC)cc(CCCC)c4ccc1c2c34,emission maximum,in CCCCCC,384 nm
same,emission maximum,in CO,384 nm
same,emission maximum,in ClCCl,385 nm
COC(=O)c1ccc(/C=C2\N=C(c3ccc([N+](=O)[O-])cc3)NC2=O)cc1,emission maximum,in C1COCCO1,510 nm
COC(=O)c1ccc(/C=C2\N=C(c3ccccc3)NC2=O)cc1,emission maximum,in C1COCCO1,461 nm
Cc1cc(=O)[nH]c(=O)[nH]1,emission maximum,in CC#N,308 nm
